# Measured values published in article PMC10030390, “A phase 1 open-label study to assess the relative bioavailability of TAK-931 tablets in reference to powder-in-capsule in patients with advanced solid tumors” (Investigational New Drugs, 2022).
# Where “and” joins values, the source holds several entries; their conditions need not be identical. Equal values may be shown once. Read-outs that look alike come from different tables or passages of the source.
# Tests used:
# [1] = test system: locally advanced or metastatic solid tumors; experiment: Antitumor activity, investigator-assessed disease response (RECIST v1.1); assay type: in vivo, human
# Experimental: The primary endpoints were the ratio of geometric means of the following PK parameters for TAK-931 tablets in reference to PIC and associated 2-sided 90% confidence intervals (CIs): maximum observed plasma concentration (Cmax), area under the plasma concentration–time curve (AUC) from time 0 to time of the last quantifiable concentration (AUClast), and the AUC from time 0 to infinity (AUCinf). Secondary endpoints were PK parameters of TAK-931 80 mg following a single-dose administration as PIC or tablet (time of first occurrence of maximum observed plasma concentration [Tmax], and terminal disposition phase half-life [T1/2z]), antitumor activity, and safety.
# solid tumors = test system: solid tumors; design: method as in earlier work; settings: of 24 response-evaluable patients, first-in-human phase 1 study; cited from earlier work
# [2] = design: method as in NCT02699749; settings: estimated from preliminary data, ref NCT02699749; cited from earlier work
smiles,measurement,setting,value
Cc1[nH]ncc1-c1cc2nc([C@@H]3CC4CCN3CC4)[nH]c(=O)c2s1 [TAK-931],partial or complete responses,[1]; 19 patients evaluable for response,No partial or complete responses
same,Median time to PD or death,[1]; 95% CI: 1.6–2.8,1.9 months
same,individual progression-free survival durations of patients with SD,"[1]; four patients with best response SD, + = censored observation",3.58 months and ≥ 2.23 months and 3.55 months and 4.01 months
same,On-study deaths,"PIC/Tablet sequence, n = 12",0 n (%)
same,On-study deaths,"Tablet/PIC sequence, n = 8",1 (13) n (%)
same,Dose modification: Dose increased,"human, in vivo",0 n (%)
same,Serious TEAEs: Not related,"human, in vivo",2 (25) n (%) and 2 (17) n (%) and 4 (20) n (%)
same,"TEAE Alopecia, Any-grade","human, in vivo",6 (30) n (%)
same,"TEAE Constipation, Any-grade","human, in vivo",8 (40) n (%)
same,"TEAE Decreased appetite, Any-grade","human, in vivo",4 (20) n (%)
same,"TEAE Disturbance in attention, Any-grade","human, in vivo",2 (10) n (%)
same,"TEAE Dyspnea, Any-grade","human, in vivo",3 (15) n (%)
same,"TEAE Dyspnea, Grade ≥ 3","human, in vivo",1 (5) n (%)
same,"TEAE Fatigue, Any-grade","human, in vivo",13 (65) n (%)
same,"TEAE Fatigue, Grade ≥ 3","human, in vivo",1 (5) n (%)
same,"TEAE Headache, Any-grade","human, in vivo",3 (15) n (%)
same,"TEAE Hypertension, Any-grade","human, in vivo",3 (15) n (%)
same,"TEAE Hypertension, Grade ≥ 3","human, in vivo",1 (5) n (%)
same,"TEAE Hypokalemia, Any-grade","human, in vivo",1 (5) n (%)
same,"TEAE Hypokalemia, Grade ≥ 3","human, in vivo",1 (5) n (%)
same,"TEAE Ileus, Any-grade","human, in vivo",2 (10) n (%)
same,"TEAE Ileus, Grade ≥ 3","human, in vivo",2 (10) n (%)
same,"TEAE Nausea, Any-grade","human, in vivo",8 (40) n (%)
same,"TEAE Neutropenia, Any-grade","human, in vivo",2 (10) n (%)
same,"TEAE Neutropenia, Grade ≥ 3","human, in vivo",2 (10) n (%)
same,"TEAE Pneumonia, Any-grade","human, in vivo",1 (5) n (%)
same,"TEAE Pneumonia, Grade ≥ 3","human, in vivo",1 (5) n (%)
same,"TEAE Rectal cancer, Any-grade","human, in vivo",1 (5) n (%)
same,"TEAE Rectal cancer, Grade ≥ 3","human, in vivo",1 (5) n (%)
same,"TEAE Vomiting, Any-grade","human, in vivo",6 (30) n (%)
same,"TEAE Weight decrease, Any-grade","human, in vivo",3 (15) n (%)
same,patients with TEAE alopecia,"human, in vivo",30%
same,patients with TEAE constipation,"human, in vivo",40%
same,patients with TEAE fatigue,"human, in vivo",65%
same,patients with TEAE nausea,"human, in vivo",40%
same,patients with TEAE vomiting,"human, in vivo",30%
same,patients with grade ≥ 3 TEAE ileus,"human, in vivo",10%
same,patients with grade ≥ 3 TEAE neutropenia,"human, in vivo",10%
same,patients with treatment-related TEAE alopecia,"human, in vivo",30%
same,patients with treatment-related TEAE decreased appetite,"human, in vivo",20%
same,patients with treatment-related TEAE fatigue,"human, in vivo",50%
same,patients with treatment-related TEAE nausea,"human, in vivo",30%
same,patients with treatment-related TEAE vomiting,"human, in vivo",20%
same,patients with a partial response,solid tumors,3
same,patients with prolonged SD,solid tumors,4
same,within-patient coefficient of variation for AUC,[2],35.0%
same,within-patient coefficient of variation for Cmax,[2],36.9%
